Test results as given in ChEMBL document CHEMBL1132817 (Bioorg Med Chem Lett, 2000).

Columns and labels:
[1] = molecular target: T1, M-phase inducer phosphatase 2 (Homo sapiens, UniProt P30305); experiment: The compound was tested for its inhibitory activity against Cell division cycle 25B
T1 sequence (P30305 whole entry): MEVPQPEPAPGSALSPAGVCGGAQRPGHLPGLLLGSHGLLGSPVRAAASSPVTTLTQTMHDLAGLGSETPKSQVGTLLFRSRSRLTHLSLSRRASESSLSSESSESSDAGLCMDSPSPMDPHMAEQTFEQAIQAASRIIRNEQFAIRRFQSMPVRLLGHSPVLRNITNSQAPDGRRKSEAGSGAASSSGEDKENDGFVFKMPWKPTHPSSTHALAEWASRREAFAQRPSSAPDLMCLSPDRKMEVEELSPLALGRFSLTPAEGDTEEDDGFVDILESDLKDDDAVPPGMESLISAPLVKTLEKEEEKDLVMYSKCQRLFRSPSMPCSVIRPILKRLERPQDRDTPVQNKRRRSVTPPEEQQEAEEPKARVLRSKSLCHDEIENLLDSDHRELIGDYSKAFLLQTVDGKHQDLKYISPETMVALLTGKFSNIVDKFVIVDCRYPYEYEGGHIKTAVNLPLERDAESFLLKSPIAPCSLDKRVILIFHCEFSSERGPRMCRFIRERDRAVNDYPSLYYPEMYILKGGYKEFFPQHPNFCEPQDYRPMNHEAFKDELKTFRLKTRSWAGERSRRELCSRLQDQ

HL-60 = experiment: The compound was tested for its inhibitory activity against HL-60 human leukemia cell line; assay type: functional, cell-based
SBC-5 = experiment: The compound was tested for its inhibitory activity against SBC-5 human lung cancer cell line; assay type: functional, cell-based
[2] = molecular target: T2, M-phase inducer phosphatase 1 (Homo sapiens, UniProt P30304); experiment: The compound was tested for its inhibitory activity against Cell division cycle 25A
T2 sequence (P30304 whole entry): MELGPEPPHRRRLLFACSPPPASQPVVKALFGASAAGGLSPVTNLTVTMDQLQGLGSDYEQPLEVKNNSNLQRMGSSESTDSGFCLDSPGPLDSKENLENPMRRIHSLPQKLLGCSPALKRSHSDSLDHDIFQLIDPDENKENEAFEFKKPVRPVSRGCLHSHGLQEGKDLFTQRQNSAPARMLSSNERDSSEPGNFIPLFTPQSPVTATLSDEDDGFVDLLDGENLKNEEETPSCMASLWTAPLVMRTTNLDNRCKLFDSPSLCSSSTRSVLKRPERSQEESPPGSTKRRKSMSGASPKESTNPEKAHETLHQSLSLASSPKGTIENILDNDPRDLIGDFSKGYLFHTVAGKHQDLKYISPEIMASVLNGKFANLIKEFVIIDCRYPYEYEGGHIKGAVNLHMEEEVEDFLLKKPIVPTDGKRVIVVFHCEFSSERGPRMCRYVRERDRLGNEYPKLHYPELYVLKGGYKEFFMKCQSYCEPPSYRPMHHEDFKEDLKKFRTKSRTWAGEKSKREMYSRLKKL

SMILES	IC50 [1]	IC50 (HL-60)	IC50 (SBC-5)	IC50 [2]
CC1(CC(O)C2=CC(=O)OC2O)CCCCC1 (centres undefined)	> 300 µM		12 µM	> 300 µM
C=C(C)CCC[C@]1(C)CCC[C@@H]2C1=CC[C@@H](C)[C@@H]2C[C@H](O)C1=CC(=O)OC1O (some centres undefined)	27 µM		4.4 µM	15 µM

The remaining lines, values ahead:

IC50 [1]	IC50 (HL-60)	IC50 (SBC-5)	IC50 [2]	SMILES
18 µM	1 µM	1.3 µM		C=C(C)CCC[C@]1(C)CCC[C@@H]2C1=CC[C@@H](C)[C@]2(C)C[C@H](O)C1=CC(=O)OC1O (some centres undefined)
19 µM		16 µM		C=C(C)CCC[C@@]1(C)CCC[C@H]2C1=CC[C@H](C)[C@]2(C)C[C@H](O)C1=CC(=O)O[C@@H]1O (stereo in doubt)
87 µM	7.1 µM	5.4 µM		C=C(C)CCC[C@]1(C)CCC[C@@H]2C1=CC[C@@H](C)[C@@]2(C)C[C@@H](O)C1=CC(=O)O[C@H]1O [DYSIDIOLIDE]
